Tested on: YUMAC tumors
Experiment: Human melanoma YUMAC xenograft tumor growth
Assay type: in vivo, nude mice
Conditions: IP, 20 mg/kg, 1/day
Experimental: Human hormone-refractory prostate cancer PC3 cells (ATCC, 1.5×10^6 cells per mouse) were injected subcutaneously into the right leg of Nude:Hsd mice (purchased from Harlan). Ten days later, when palpable tumors had developed, mice were divided into 3 groups with similar average tumor size. […] The mice treated with compound 7 group were daily injected with compound 7 dissolved in the below described vehicle, and the vehicle-treated group (veh) was daily injected by the vehicle alone. Vehicle included 4.4% DMSO, 1.2% Ethanol and 50% PEG400 in DDW; Groups were composed of 3 mice per group. Dose administered IP was 50 mg/Kg (4 ml/Kg) once a day for one month. The length (l) and the width (w) of the tumors were measured every day and the volumes of the tumors were calculated as follows: v=1w^2/2. Graphs present average volumes of the tumors versus time in days. The procedure was followed for the other described in-vivo studies with the following modifications:
The human YUMAC metastatic melanoma cells (2×10^6 cells per mouse), provided by Dr. Ruth Halaban (Yale University), were injected subcutaneously into the right leg of male Nude:Hsd mice (purchased from Harlan). Inhibitors were injected IP daily at a dose of 20 mg/kg dissolved in 8% EtOH, 2% Tween-80, 20% PEG-400 and 20% solutol in DDW at volume of 4 ml/kg.

Question: How did the “Growth inhibition of human melanoma YUMAC tumors” value turn out when `N#C/C(=C\c1cc(O)c(O)c(I)c1)C(=S)NCc1cc(O)c(O)c(O)c1` [Compound 8] was run?
Answer: inhibition
